Data from paper PMC11164132 (British journal of pharmacology, 2021).

Biological target: hTRPV1 (Homo sapiens, UniProt Q8NER1)
Assay type: cell-based

Chain of hTRPV1 (Q8NER1 whole entry): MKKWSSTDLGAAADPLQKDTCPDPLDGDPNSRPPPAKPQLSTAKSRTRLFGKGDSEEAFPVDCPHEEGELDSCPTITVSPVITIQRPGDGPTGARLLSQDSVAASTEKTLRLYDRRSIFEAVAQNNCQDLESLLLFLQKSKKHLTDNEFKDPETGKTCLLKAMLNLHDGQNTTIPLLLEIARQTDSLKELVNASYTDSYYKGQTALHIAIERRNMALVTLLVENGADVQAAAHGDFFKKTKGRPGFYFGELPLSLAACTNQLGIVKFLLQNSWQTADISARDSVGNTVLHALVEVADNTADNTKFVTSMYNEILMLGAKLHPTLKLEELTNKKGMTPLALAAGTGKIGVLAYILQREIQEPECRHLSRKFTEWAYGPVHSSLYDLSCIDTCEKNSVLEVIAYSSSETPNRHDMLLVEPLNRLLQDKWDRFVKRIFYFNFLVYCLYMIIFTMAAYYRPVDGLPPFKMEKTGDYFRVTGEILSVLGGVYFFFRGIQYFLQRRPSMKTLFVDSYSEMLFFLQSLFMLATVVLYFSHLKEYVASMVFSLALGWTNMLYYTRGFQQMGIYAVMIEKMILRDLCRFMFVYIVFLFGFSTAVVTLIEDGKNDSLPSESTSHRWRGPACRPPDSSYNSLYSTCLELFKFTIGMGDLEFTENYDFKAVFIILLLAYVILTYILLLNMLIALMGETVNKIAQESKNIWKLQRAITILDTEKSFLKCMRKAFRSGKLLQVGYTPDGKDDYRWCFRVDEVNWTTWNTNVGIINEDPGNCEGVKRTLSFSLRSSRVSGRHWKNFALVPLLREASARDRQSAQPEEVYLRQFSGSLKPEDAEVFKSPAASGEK

## CCCCCCCCCCCC(=O)NCCO [compound 3, lauric acid monoethanolamide]
  EC50: 3.2 µM
